Data published in ChEMBL document CHEMBL1201862, “PubChem BioAssay data set” (2004).
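48-hour exposure; five concentrations; linearly interpolated endpoints. GI50 is the concentration that inhibits growth by half.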 Active and inactive are the calls of the source. Rule as the data show it: active = GI50 up to about 1.1 µM and inactive = higher.

Tests used:
Assay in all cases: NCI tumour cell line growth inhibition, 48 h
[1] = tested on: NCI-H522
[2] = tested on: OVCAR-4
[3] = tested on: SK-MEL-28
[4] = tested on: UACC-257
[5] = tested on: TK-10
[6] = tested on: MDA-N
[7] = tested on: RPMI-8226
[8] = tested on: HOP-92
[9] = tested on: ACHN
[10] = tested on: HCT-116
[11] = tested on: SF-539
[12] = tested on: EKVX
[13] = tested on: NCI/ADR-RES
[14] = tested on: KM12
[15] = tested on: CAKI-1
[16] = tested on: MDA-MB-435
[17] = tested on: A498
[18] = tested on: UO-31
[19] = tested on: SW-620
[20] = tested on: HL-60

| SMILES | GI50 [1] | GI50 [2] | GI50 [3] | GI50 [4] | GI50 [5] | GI50 [6] | GI50 [7] | GI50 [8] | GI50 [9] | GI50 [10] | GI50 [11] | GI50 [12] | GI50 [13] | GI50 [14] | GI50 [15] | GI50 [16] | GI50 [17] | GI50 [18] | GI50 [19] | GI50 [20] |
| --- | --- | --- | --- | --- | --- | --- | --- | --- | --- | --- | --- | --- | --- | --- | --- | --- | --- | --- | --- | --- |
| O=C(O)c1ccccc1-c1ccccc1C(=O)Nc1ccc2c(c1)Cc1cc(F)ccc1-2 | 24.3 µM (inactive) | 25.9 µM (inactive) | 37.8 µM (inactive) | 22.1 µM (inactive) | 28.9 µM (inactive) | 23.6 µM (inactive) | 31.5 µM (inactive) | 37.9 µM (inactive) | 21.2 µM (inactive) | 16 µM (inactive) | 29.5 µM (inactive) | 27.1 µM (inactive) | 36.5 µM (inactive) | 24.5 µM (inactive) | 30.4 µM (inactive) | 32.5 µM (inactive) | 19 µM (inactive) | 27.8 µM (inactive) | 33.7 µM (inactive) | – |
| C=CC(=O)N1C/C(=C\c2ccc([N+](=O)[O-])cc2)C(=O)/C(=C/c2ccc([N+](=O)[O-])cc2)C1 | – | 0.233 µM (active) | 0.275 µM (active) | 0.794 µM (active) | 0.713 µM (active) | 0.169 µM (active) | 0.0193 µM (active) | 0.811 µM (active) | 0.16 µM (active) | < 0.017 µM (active) | < 0.019 µM (active) | 0.243 µM (active) | 0.258 µM (active) | 0.175 µM (active) | 0.128 µM (active) | 0.254 µM (active) | 0.28 µM (active) | 0.147 µM (active) | 0.0304 µM (active) | > 100 µM (inactive) |
| CSC1NC(c2ccc(Cl)cc2)=C(C#N)C(=O)N1C1OCC(OC(C)=O)C(OC(C)=O)C1OC(C)=O (stereo not given) | > 100 µM (inactive) | > 100 µM (inactive) | > 100 µM (inactive) | > 100 µM (inactive) | > 100 µM (inactive) | > 100 µM (inactive) | > 100 µM (inactive) | > 100 µM (inactive) | > 100 µM (inactive) | – | 67.3 µM (inactive) | > 100 µM (inactive) | > 100 µM (inactive) | > 100 µM (inactive) | > 100 µM (inactive) | > 100 µM (inactive) | 34.8 µM (inactive) | 53.3 µM (inactive) | > 100 µM (inactive) | – |
| COc1ccc2nc(-c3ccc(O)cc3)cn2c1 | 32 µM (inactive) | 73.8 µM (inactive) | 85.5 µM (inactive) | – | 71 µM (inactive) | 23.4 µM (inactive) | 32.2 µM (inactive) | 95.7 µM (inactive) | 23.3 µM (inactive) | 48.5 µM (inactive) | 54.1 µM (inactive) | 98.6 µM (inactive) | 65.8 µM (inactive) | 50.2 µM (inactive) | 55.8 µM (inactive) | 18.5 µM (inactive) | 71.4 µM (inactive) | 35 µM (inactive) | 11.7 µM (inactive) | – |
| Clc1ccc(C2=C(c3ccccc3)C(c3ccc(Cl)cc3)N3C(=N[C@H]4CCCC[C@@H]43)N2)cc1 (stereo not given in full) | – | 9.2 µM (inactive) | 13.7 µM (inactive) | 14.9 µM (inactive) | 10.5 µM (inactive) | 14.7 µM (inactive) | 2.48 µM (inactive) | 9.59 µM (inactive) | 11.2 µM (inactive) | 4.08 µM (inactive) | 15.3 µM (inactive) | 12.4 µM (inactive) | 11.4 µM (inactive) | 9.4 µM (inactive) | 16.1 µM (inactive) | 14.5 µM (inactive) | 17.3 µM (inactive) | 13.6 µM (inactive) | 8.05 µM (inactive) | 3.19 µM (inactive) |
| Cc1ccc(-n2cnc3c(N)nc(N)nc32)cc1 | > 100 µM (inactive) | > 100 µM (inactive) | > 100 µM (inactive) | > 100 µM (inactive) | 65.6 µM (inactive) | > 100 µM (inactive) | > 100 µM (inactive) | > 100 µM (inactive) | > 100 µM (inactive) | > 100 µM (inactive) | > 100 µM (inactive) | 81.5 µM (inactive) | > 100 µM (inactive) | 42.6 µM (inactive) | > 100 µM (inactive) | > 100 µM (inactive) | > 100 µM (inactive) | 58.9 µM (inactive) | > 100 µM (inactive) | – |
| N=C(c1ccc2ccccc2c1)c1ccccc1Cc1ccccc1 | – | 34.7 µM (inactive) | 62.4 µM (inactive) | 52.6 µM (inactive) | > 100 µM (inactive) | 24.8 µM (inactive) | 38 µM (inactive) | 27.9 µM (inactive) | 45.5 µM (inactive) | 16.8 µM (inactive) | 41.5 µM (inactive) | 17.3 µM (inactive) | 37.2 µM (inactive) | 25.2 µM (inactive) | 55 µM (inactive) | 22.7 µM (inactive) | 82.8 µM (inactive) | 33.4 µM (inactive) | 37.8 µM (inactive) | 27.5 µM (inactive) |
| CC(C)(Br)C(Br)CCC1(C2CO2)CO1 (stereo not given) | > 5 µM (inactive) | > 5 µM (inactive) | > 5 µM (inactive) | > 5 µM (inactive) | – | > 5 µM (inactive) | > 5 µM (inactive) | > 5 µM (inactive) | > 5 µM (inactive) | > 5 µM (inactive) | > 5 µM (inactive) | > 5 µM (inactive) | > 5 µM (inactive) | – | > 5 µM (inactive) | > 5 µM (inactive) | > 5 µM (inactive) | > 5 µM (inactive) | > 5 µM (inactive) | – |
| N#Cc1c(N)nc2c(C#N)c(N)cc3c2c1Oc1ccccc1-3 | – | > 100 µM (inactive) | > 100 µM (inactive) | > 100 µM (inactive) | > 100 µM (inactive) | > 100 µM (inactive) | > 100 µM (inactive) | > 100 µM (inactive) | > 100 µM (inactive) | > 100 µM (inactive) | > 100 µM (inactive) | > 100 µM (inactive) | > 100 µM (inactive) | 74 µM (inactive) | > 100 µM (inactive) | > 100 µM (inactive) | > 100 µM (inactive) | > 100 µM (inactive) | > 100 µM (inactive) | > 100 µM (inactive) |
| CNC(=S)N/N=C1\C(=O)N(CN2CCOCC2)c2ccc([N+](=O)[O-])cc21 | – | 14.8 µM (inactive) | 20.7 µM (inactive) | 25.4 µM (inactive) | 13.3 µM (inactive) | 67.9 µM (inactive) | 21.2 µM (inactive) | 21.3 µM (inactive) | 17.5 µM (inactive) | 15.4 µM (inactive) | 17.7 µM (inactive) | 15.6 µM (inactive) | 16.3 µM (inactive) | 22.8 µM (inactive) | 17.7 µM (inactive) | 60.3 µM (inactive) | 24.5 µM (inactive) | 3.05 µM (inactive) | 28.2 µM (inactive) | 23.6 µM (inactive) |
| O=S(=O)(F)Cc1ccccc1 [PHENYLMETHYLSULFONYLFLUORIDE] | 39.1 µM (inactive) | > 100 µM (inactive) | > 100 µM (inactive) | > 100 µM (inactive) | > 100 µM (inactive) | > 100 µM (inactive) | > 100 µM (inactive) | > 100 µM (inactive) | > 100 µM (inactive) | > 100 µM (inactive) | > 100 µM (inactive) | > 100 µM (inactive) | > 100 µM (inactive) | > 100 µM (inactive) | > 100 µM (inactive) | > 100 µM (inactive) | > 100 µM (inactive) | > 100 µM (inactive) | > 100 µM (inactive) | – |
